# Where two headings read alike, the source gives them in different places.
# Assays:
# [1] = test system: IL-2 secretion from activated Jurkat cells; test: Inhibition of IL-2 in PMA/A23187 activated T cells (ELISA); format: cell-based, human; settings: for reversal of IL-2 secretion inhibiting activity by antagonists: 0.5-5 μM of CB1 antagonist SR141716A or CB2 antagonist SR144528; for IC50: 24 hours after stimulation, read-out: calculated IC50 IL-2 secretion
# Protocol: The technique used to quantify the amount of a given protein in a liquid sample, either tissue culture supernatant or body fluid, is based on Enzyme Linked ImmunoSorbent Assay (ELISA) methodology. Either commercially available or established in house, the assay is based on the capture of the protein of interest by specific antibodies bound to the bottom of an ELISA plate well. […] Again the unbound material is washed away, the samples are then incubated with the appropriate substrate yielding a calorimetric reaction. The reaction is stopped and reading is performed in a spectrophotometer at the appropriate wavelength. Samples are tested at least in duplicate and the appropriate standard curve, consisting of serial dilutions of the recombinant target protein, is incorporated on each plate. Concentration of the protein in the sample is calculated from the standard curve.
# Jurkat cells (human acute lymphoma T-cell line; ATCC # TIB-152) are grown in RPMI 1640 medium with 2 mM L-glutamine adjusted to contain 1.5 g/L sodium bicarbonate, 4.5 g/L glucose, 10 mM HEPES, 1.0 mM sodium pyruvate, and 10% heat inactivated fetal bovine serum. Cells are grown in tissue culture flasks and seeded at appropriate density into 24 wells tissue culture plates. 2×10^6 cells in one milliliter are stimulated using 10 ng/ml of PMA (Sigma) and 1 μM A23187 calcium ionophore (Sigma). […] The controls and test compounds are added at indicated concentrations one hour before stimulation. Supernatant is collected 24 hours after stimulation and the levels of the inflammatory agent under study are measured in an ELISA assay as previously described. Inhibition is calculated versus vehicle treated cells.
# The activation of the T cells is performed as previously described. The levels of IL-2 are measured in an ELISA assay as previously described. Inhibition is calculated versus vehicle treated cells.
# Female Balb/c mice = test system: Female Balb/c mice; set-up: maximal reduction in paw edema: dose or concentration left out as unconfirmed; settings: for maximal reduction in paw thickness (MOE) / dose at which the maximal effect was observed: i.p.; for maximal reduction in paw thickness (MOE): 3 hours after carrageenan, at the dose of maximal effect; for dose at which the maximal effect was observed: paw thickness
# Protocol: The purpose of this study is to test in vivo the anti-inflammatory activity of the compounds in paw edema induced by injection of 1% carrageenan in the animal hind paw. Female Balb/c mice (20 g average body weight, Harlan, Israel) are anesthetized with a combination of xylazine and pentobarbitone diluted in sterile saline, 15 and 6 mg/kg i.p. respectively. Anesthetized mice are injected subcutaneously, in the subplantar region of one (right) paw with 0.05 ml of 1% w/v Carrageenan in sterile water. […] The test compounds, including known anti-inflammatory controls, are dissolved in CREMOPHOR EL®:ethanol and further diluted 1:20 or 1:50 in sterile saline prior to i.p. injection that takes place immediately before the carrageenan injection. Three hours after injection the animals are resedated following the previously described procedure. Paw thickness is measured using a dial thickness gauge (Spring-dial, constant low pressure gauge, Mitutoyo, TG/L-1, 0.01 mm) and paw volume is measured using a plethysmometer (model #7150, Ugo Basile, Italy). Paw Edema is expressed as the difference between the right treated and the left untreated paws of the same animal, either as Δ Paw Volume (ΔPV) in millimeters cube or as Δ Paw Thickness (ΔPT) in millimeters. Each group comprises at least 10 animals. […] At the end of the study, animals are euthanized with an i.p. injection of 100 mg/kg pentobarbitone.
# The differences among various treatment groups are analyzed by analysis of variance (ANOVA) followed by post-hoc Fisher test. A value of p<0.05 is considered to be statistically significant.
# For sake of comparison, known anti-inflammatory drugs such as Celecoxib and Dexamethasone yield respectively in the range of relevant doses 7% and 26% reduction in paw thickness at 0.1 mg/kg, 16% and 31% at 0.25 mg/kg and 24% and 33% at 0.5 mg/kg. […] It should be kept in mind that these commercially available drugs display serious side effects that prevent chronic uses without complementary protective medication.
# [2] = test system: PGE2 secretion from activated RAW 264.7 macrophages; test: Inhibition of PGE2 in LPS activated macrophages (ELISA); format: cell-based, mouse; settings: 4 hours after activation, doses 1 μM to 20 μM
# Description: The technique used to quantify the amount of a given protein in a liquid sample, either tissue culture supernatant or body fluid, is based on Enzyme Linked ImmunoSorbent Assay (ELISA) methodology. Either commercially available or established in house, the assay is based on the capture of the protein of interest by specific antibodies bound to the bottom of an ELISA plate well. Unbound material is washed away, the captured protein is then exposed to a secondary antibody generally labeled with horseradish peroxidase (HRP) or alkaline phosphatase (ALP). Again the unbound material is washed away, the samples are then incubated with the appropriate substrate yielding a calorimetric reaction. The reaction is stopped and reading is performed in a spectrophotometer at the appropriate wavelength. Samples are tested at least in duplicate and the appropriate standard curve, consisting of serial dilutions of the recombinant target protein, is incorporated on each plate. Concentration of the protein in the sample is calculated from the standard curve.
# RAW 264.7 macrophages, a mouse cell line (ATCC # TIB-71), were grown in Dulbecco's modified Eagle's medium (DMEM) with 4 mM L-glutamine adjusted to contain 1.5 g/L sodium bicarbonate, 4.5 g/L glucose, and 10% heat inactivated fetal bovine serum. Cells were grown in tissue culture flasks and seeded at appropriate density into 24 wells tissue culture plates. 0.5×10^6 Raw cells in one milliliter were stimulated with 2 μg/ml Lipopolysaccharide E. coli 055:B5 (DIFCO Laboratories). The mouse macrophages were pre-treated for one hour with controls or 10 μM of bicyclic CB2 ligands and later on activated with LPS. Dexamethasone was used as a positive control at 50 nM. Supernatant was collected 4 hours (for PGE2) and 24 hours (for IL-1β and TNF-α) after activation, and the levels of the inflammatory agent under study were determined by ELISA, as previously described. Inhibition was calculated versus vehicle treated cells.
# The activation of the macrophages is performed as previously described. The levels of PGE2 are measured in an ELISA assay as previously described. Inhibition is calculated versus vehicle treated cells. […] Results are depicted in FIG. 2B.
compound,measurement,setting,value
"CCCCCCC(C)(C)c1cc(OC)c(C2C=C(CO)C3CC2C3(C)C)c(OC)c1 (single isomer, unassigned; (+)) [HU-308, (+) {4-[4-(1,1-dimethylheptyl)-2,6-dimethoxy-phenyl]-6,6-dimethyl-bicyclo[3.1.1]hept-2-en-2-yl}-methanol, reference compound]",effect on IL-2 secretion,[1]; doses of up to 10 μM,minimal effect
same,maximal reduction in paw thickness (MOE),Female Balb/c mice,about 28%
same,dose at which the maximal effect was observed,Female Balb/c mice,0.6 mg/kg
"CCCCCCC(C)(C)c1cc(O)c(C2CC(=O)C3CC2C3(C)C)c(O)c1 (single isomer, unassigned; (-)) [Compound A, (−)-4-[4-(1,1-Dimethyl-heptyl)2,6-dihydroxy-phenyl]-6,6-dimethyl-bicyclo[3.1.1)heptan-2-one]",IC50,"[2]; Mus musculus, RAW264.7",9 µM
same,reversal of IL-2 secretion inhibiting activity by antagonists,[1],not reversed by any of these antagonists
same,IC50,"[1]; Homo sapiens, Jurkat",3 µM
same,maximal reduction in paw thickness (MOE),Female Balb/c mice,28%
same,dose at which the maximal effect was observed,Female Balb/c mice,2.5 mg/kg
"CCCCC(C)(C)c1cc(O)c(C2CC(=O)C3CC2C3(C)C)c(O)c1 (single isomer, unassigned; (-)) [Compound L, (−)-4-[4(1,1-Dimethyl-pentyl)-2,6-dihydroxy-phenyl]-6,6-dimethyl-bicyclo[3.1.1]heptan-2-one]",IC50,"[2]; Mus musculus, RAW264.7",7 µM
same,reversal of IL-2 secretion inhibiting activity by antagonists,[1],not reversed by any of these antagonists
same,IC50,"[1]; Homo sapiens, Jurkat",8 µM
same,maximal reduction in paw thickness (MOE),Female Balb/c mice,34%
same,dose at which the maximal effect was observed,Female Balb/c mice,0.25 mg/kg
"CCCCC(C)(C)c1cc(O)c(C2CC(=O)C3CC2C3(C)C)c(OC(=O)CCC(=O)O)c1 (single isomer, unassigned; (-)) [Compound Y, (−)-4-{4-[1,1-Dimethyl-pentyl]-2-succinate-6-hydroxy-phenyl}-6,6-dimethyl-bicyclo[3.1.1]heptan-2-one]",IC50,[2],7 µM
same,IC50,[1],9 µM
"CCCCCCC(C)(C)c1cc(O)c([C@H]2CC(=O)[C@H]3C[C@@H]2C3(C)C)c(OC(=O)CCC(=O)O)c1 [Compound R, (−)-4-{4-[1,1-Dimethyl-heptyl]-2-succinate-6-hydroxy-phenyl}-6,6-dimethyl-bicyclo[3.1.1]heptan-2-one]",IC50,"[2]; Mus musculus, RAW264.7",9 µM
same,IC50,"[1]; Homo sapiens, Jurkat",9 µM
same,maximal reduction in paw edema,Female Balb/c mice; formulated in cosolvent,31%
same,maximal reduction in paw thickness (MOE),Female Balb/c mice,31%
same,dose at which the maximal effect was observed,Female Balb/c mice,0.5 mg/kg
same,therapeutic index,"Female Balb/c mice; paw edema, 0.5 mg/kg versus tolerated 40 mg/kg",at least 80

# From patent US20050020544A1, “Bicyclic CB2 cannabinoid receptor ligands” (priority 2002, published 2005)
